The results in this text go back to US20070141687A1, “Increase in stress tolerance with ascorbic acid during fermentation” (priority 2005, published 2007).

The subject of data set [1] is S. cerevisiae strain NRRL Y-30696. The data set can be described thus: Growth and lactic acid production of lactic acid producing yeast with exogenous ascorbic acid. The class given is cell-based. Particulars: minimal glucose medium, 2.78 g/L CaCO3, 0, 0.16, 0.3 or 0.6 g/L ascorbic acid. On the procedure: S. cerevisiae strain NRRL Y-30696 was inoculated in minimal glucose medium and 2.78 g/L CaCO3 or minimal glucose medium with 2.78 g/L CaCO3 and 0.16, 0.3, or 0.6 g/L ascorbic acid. OD660 (open symbols) and lactic acid (closed symbols) were monitored with time. The pH dropped in each case to 2.5 at 67 hours.

In data set [2] the test system is GRFc, BY4741, and CEN.PK 113-5D yeast strains. Briefly: Growth of wild type yeast strains in medium containing lactic acid at pH 3 with added ascorbic acid. Conditions: 2xYNB medium, lactic acid 40 g/l, pH3.
The subject of data set [3] is YML007w yeast. Briefly: Growth (OD660) of yap1-deleted yeast under H2O2 oxidative stress with ascorbic acid in the medium. The format is cell-based, S. cerevisiae. Conditions: 0.8 or 1.0 mM H2O2; ascorbic acid added at T=0 at 15 mg/L; minimal medium 2% glucose. As for the experimental part:
FIG. 3A. […] Ascorbic acid was added at T=0 at a final concentration of 15 mg/L. BY4742 (▴); YML007w (◯).
FIG. 3B. […] Ascorbic acid was added at T=0 at a final concentration of 15 mg/L. BY4742 (▴); YML007w (◯).

Data set [4] concerns YML007w yeast.

Like-named read-outs stand apart in the source and are kept apart here.

Turning to `O=C1O[C@H]([C@@H](O)CO)C(O)=C1O` [ascorbic acid, L-ascorbic acid], in data set [1], the lactic acid production result was “equivalent at each level”. For the same compound, the “growth as measured by OD660” value in data set [1] (pH dropped to 2.5 at 67 hours) is “increased with increasing ascorbic acid”. In addition, in data set [2], the “dose dependence of the effect of ascorbic acid on growth” value is reported as “dose dependent”. Besides, the “effect on growth inhibition by lactic acid (OD660)” value in data set [2] (zero or increasing ascorbic acid) is recorded as “negative effects of lactic acid on growth can be overcome”. Further, the “growth sensitivity of YML007w yeast to H2O2 (OD660)” value in data set [3] is “can be rescued”.

As for `OO` [hydrogen peroxide], the “growth of YML007w yeast host” value is “strongly delayed” in data set [4] (0.8 mM hydrogen peroxide in medium) and “completely impaired” in data set [4] (1 mM hydrogen peroxide in medium).
